Drawing on US10968215B2 (SHANGHAI HAIHE PHARMACEUTICAL CO., LTD., priority 2016, dated 2021), this text covers IC50 for 20 compounds.

Structures are written as SMILES.

What is called IC50 is the concentration that gives 50% inhibition.

The target of one experiment is PRC2 complex (EZH2 Y641F/EED/SUZ12/RbAp48/AEBP2) (Homo sapiens (Human), UniProt Q15910, Y641F). The experiment is described as follows: Activity of a compound to PRC2 complex (EZH2 Y641F), HTRF.
Chain of PRC2 complex (EZH2 Y641F/EED/SUZ12/RbAp48/AEBP2) (Q15910 whole entry Y641F): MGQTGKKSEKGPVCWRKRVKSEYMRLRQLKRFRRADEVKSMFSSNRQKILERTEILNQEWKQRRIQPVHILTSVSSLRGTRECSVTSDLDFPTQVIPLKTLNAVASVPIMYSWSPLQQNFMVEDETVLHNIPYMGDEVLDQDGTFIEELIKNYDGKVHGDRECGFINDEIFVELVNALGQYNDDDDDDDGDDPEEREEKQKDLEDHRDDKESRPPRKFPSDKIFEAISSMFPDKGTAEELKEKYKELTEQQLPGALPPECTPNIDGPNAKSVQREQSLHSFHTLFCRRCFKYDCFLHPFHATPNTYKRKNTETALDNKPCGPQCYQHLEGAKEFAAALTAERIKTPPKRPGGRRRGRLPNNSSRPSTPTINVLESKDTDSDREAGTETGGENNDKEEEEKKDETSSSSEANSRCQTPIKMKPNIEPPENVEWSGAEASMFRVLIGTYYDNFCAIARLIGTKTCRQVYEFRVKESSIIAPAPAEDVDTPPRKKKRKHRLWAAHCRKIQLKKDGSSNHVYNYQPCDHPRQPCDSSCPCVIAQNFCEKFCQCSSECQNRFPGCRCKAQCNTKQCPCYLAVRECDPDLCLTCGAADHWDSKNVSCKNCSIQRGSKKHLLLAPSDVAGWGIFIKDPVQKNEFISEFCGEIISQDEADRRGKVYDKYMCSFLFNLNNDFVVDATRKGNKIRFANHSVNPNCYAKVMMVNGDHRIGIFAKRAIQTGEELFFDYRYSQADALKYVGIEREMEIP
Chain of PRC2 complex (EZH2 Y641F/EED/SUZ12/RbAp48/AEBP2) (O75530 whole entry partner): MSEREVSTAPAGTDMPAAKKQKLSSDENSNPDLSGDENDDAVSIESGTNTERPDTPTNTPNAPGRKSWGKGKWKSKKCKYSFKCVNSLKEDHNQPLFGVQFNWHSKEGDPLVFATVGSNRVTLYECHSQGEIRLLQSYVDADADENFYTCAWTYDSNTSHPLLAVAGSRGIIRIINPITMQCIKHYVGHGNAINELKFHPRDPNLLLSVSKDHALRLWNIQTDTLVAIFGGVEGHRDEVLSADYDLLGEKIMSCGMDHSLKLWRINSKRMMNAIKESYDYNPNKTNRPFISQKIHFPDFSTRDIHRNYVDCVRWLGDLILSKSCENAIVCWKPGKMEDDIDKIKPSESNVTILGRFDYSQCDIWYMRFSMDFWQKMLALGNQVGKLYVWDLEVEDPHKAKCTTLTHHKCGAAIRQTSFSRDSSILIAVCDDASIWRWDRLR
Chain of PRC2 complex (EZH2 Y641F/EED/SUZ12/RbAp48/AEBP2) (Q15022 whole entry partner): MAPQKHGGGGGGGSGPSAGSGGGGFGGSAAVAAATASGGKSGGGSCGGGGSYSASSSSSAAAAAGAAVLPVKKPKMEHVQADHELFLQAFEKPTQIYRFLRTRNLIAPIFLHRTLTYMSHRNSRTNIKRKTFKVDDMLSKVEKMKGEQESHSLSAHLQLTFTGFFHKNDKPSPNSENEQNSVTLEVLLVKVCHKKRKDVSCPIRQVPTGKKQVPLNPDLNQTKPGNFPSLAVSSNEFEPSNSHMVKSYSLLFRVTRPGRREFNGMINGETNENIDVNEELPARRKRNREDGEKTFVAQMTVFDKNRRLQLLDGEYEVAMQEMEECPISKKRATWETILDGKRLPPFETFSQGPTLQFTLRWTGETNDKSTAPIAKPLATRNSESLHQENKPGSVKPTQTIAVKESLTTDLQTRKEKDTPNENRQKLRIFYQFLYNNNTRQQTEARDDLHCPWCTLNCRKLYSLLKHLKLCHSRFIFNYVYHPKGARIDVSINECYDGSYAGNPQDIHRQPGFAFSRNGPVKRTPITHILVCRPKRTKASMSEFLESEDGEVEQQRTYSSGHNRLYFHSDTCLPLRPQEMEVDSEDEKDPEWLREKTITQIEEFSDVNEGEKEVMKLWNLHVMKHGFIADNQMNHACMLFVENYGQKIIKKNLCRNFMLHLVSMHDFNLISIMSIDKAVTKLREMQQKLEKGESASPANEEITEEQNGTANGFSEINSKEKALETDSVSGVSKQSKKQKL
Chain of PRC2 complex (EZH2 Y641F/EED/SUZ12/RbAp48/AEBP2) (Q09028 whole entry partner): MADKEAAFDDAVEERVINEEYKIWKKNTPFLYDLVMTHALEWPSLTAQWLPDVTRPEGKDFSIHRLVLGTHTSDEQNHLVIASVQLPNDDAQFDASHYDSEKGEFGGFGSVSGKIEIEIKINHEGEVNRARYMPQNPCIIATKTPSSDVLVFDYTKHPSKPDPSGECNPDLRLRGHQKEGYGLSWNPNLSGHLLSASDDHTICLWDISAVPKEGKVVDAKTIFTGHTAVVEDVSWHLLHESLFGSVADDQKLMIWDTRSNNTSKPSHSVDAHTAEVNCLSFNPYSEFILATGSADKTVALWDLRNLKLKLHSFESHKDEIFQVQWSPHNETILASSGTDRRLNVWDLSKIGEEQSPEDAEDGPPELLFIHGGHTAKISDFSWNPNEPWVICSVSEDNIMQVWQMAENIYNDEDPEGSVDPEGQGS
Chain of PRC2 complex (EZH2 Y641F/EED/SUZ12/RbAp48/AEBP2) (Q6ZN18 whole entry partner): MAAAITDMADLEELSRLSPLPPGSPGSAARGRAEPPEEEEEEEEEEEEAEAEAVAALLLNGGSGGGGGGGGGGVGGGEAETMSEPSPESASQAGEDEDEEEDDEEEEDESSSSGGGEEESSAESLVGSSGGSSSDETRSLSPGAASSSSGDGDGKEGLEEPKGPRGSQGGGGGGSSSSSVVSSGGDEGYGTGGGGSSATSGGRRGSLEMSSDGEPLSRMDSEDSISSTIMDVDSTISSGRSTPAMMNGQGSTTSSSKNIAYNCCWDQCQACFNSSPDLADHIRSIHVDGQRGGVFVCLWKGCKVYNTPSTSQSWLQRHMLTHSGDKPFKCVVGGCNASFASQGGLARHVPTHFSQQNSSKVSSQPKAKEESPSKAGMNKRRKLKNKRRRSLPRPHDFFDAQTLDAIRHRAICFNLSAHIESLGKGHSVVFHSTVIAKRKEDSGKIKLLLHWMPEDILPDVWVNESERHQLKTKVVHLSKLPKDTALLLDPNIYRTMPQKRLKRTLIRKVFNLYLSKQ
Details: not given
(In general: Time-resolved FRET reads energy transfer from a long-lived donor to a nearby acceptor.)
Consider `COc1cc(C)[nH]c(=O)c1CNC(=O)c1cc2c(-c3ccc(F)cc3)ccn2c(C(C)N2CCN(CC(F)(F)F)CC2)c1C` (centres unmarked) [Compound 162, 1-(4-fluorophenyl)-N-((4-methoxy-6-methyl-2-oxo-1,2-dihydropyridin-3-yl)methyl)-6-methyl-5-(1-(4-(2,2,2-trifluoroethyl)piperazin-1-yl)ethyl)indolizine-7-carboxamide], for which the half-inhibitory concentration (IC50) is under 100 nM.

For the compound `COc1cc(C)[nH]c(=O)c1CNC(=O)c1cc2c(-c3ccnc(N(C)C)c3)ccn2c(C(C)N2CCN(CC(F)(F)F)CC2)c1C` (centres unmarked) [Compound 170, 1-(2-(dimethylamino)pyridin-4-yl)-N-((4-methoxy-6-methyl-2-oxo-1,2-dihydropyridin-3-yl)methyl)-6-methyl-5-(1-(4-(2,2,2-trifluoroethyl)piperazin-1-yl)ethyl)indolizine-7-carboxamide], the half-inhibitory concentration (IC50) was under 100 nM.

Take `CNc1cc(-c2ccn3c(C(C)N4CCN(CC(F)(F)F)CC4)c(C)c(C(=O)NCc4c(OC)cc(C)[nH]c4=O)cc23)ccn1` (centres unmarked) [Compound 180, N-((4-methoxy-6-methyl-2-oxo-1,2-dihydropyridin-3-yl)methyl)-6-methyl-1-(2-(methylamino)pyridin-4-yl)-5-(1-(4-(2,2,2-trifluoroethyl)piperazin-1-yl)ethyl)indolizine-7-carboxamide]: the IC50 is under 100 nM.

The experiment is the same for the next values; noted with them: read-out: IC50 (EZH2_Y641F); EZH2 Y641F PRC2 complex, HTRF; class symbols.
Regarding `CNc1cc(-c2ccn3c([C@H](C)N4CCN(CC(F)(F)F)CC4)c(C)c(C(=O)NCc4c(OC)cc(C)[nH]c4=O)cc23)ccn1` (single isomer, unassigned) [Compound 182, (S)—N-((4-methoxy-6-methyl-2-oxo-1,2-dihydropyridin-3-yl)methyl)-6-methyl-1-(2-(methylamino)pyridin-4-yl)-5-(1-(4-(2,2,2-trifluoroethyl)piperazin-1-yl)ethyl)indolizine-7-formamide or (R)—N-((4-methoxy-6-methyl-2-oxo-1,2-dihydropyridin-3-yl)methyl)-6-methyl-1-(2-(methylamino)pyridin-4-yl)-5-(1-(4-(2,2,2-trifluoroethyl)piperazin-1-yl)ethyl)indolizine-7-formamide], the IC50 lay within 100 to 1000 nM.

In the case of `COc1cc(-c2ccn3c([C@H](C)N4CCN(CC(F)(F)F)CC4)c(C)c(C(=O)NCc4c(OC)cc(C)[nH]c4=O)cc23)ccn1` (single isomer, unassigned) [Compound 194, (S)—N-((4-methoxy-6-methyl-2-oxo-1,2-dihydropyridin-3-yl)methyl)-1-(2-methoxypyridin-4-yl)-6-methyl-5-(1-(4-(2,2,2-trifluoroethyl)piperazin-1-yl)ethyl)indolizine-7-carboxamide or (R)—N-((4-methoxy-6-methyl-2-oxo-1,2-dihydropyridin-3-yl)methyl)-1-(2-methoxypyridin-4-yl)-6-methyl-5-(1-(4-(2,2,2-trifluoroethyl)piperazin-1-yl)ethyl)indolizine-7-carboxamide], the IC50 is under 100 nM.

For the compound `COc1cc(-c2ccn3c([C@H](C)N4CCN(CC(F)(F)F)CC4)c(C)c(C(=O)NCc4c(OC)cc(C)[nH]c4=O)cc23)ccn1` (single isomer, unassigned) [Compound 195, (S)—N-((4-methoxy-6-methyl-2-oxo-1,2-dihydropyridin-3-yl)methyl)-1-(2-methoxypyridin-4-yl)-6-methyl-5-(1-(4-(2,2,2-trifluoroethyl)piperazin-1-yl)ethyl)indolizine-7-carboxamide or (R)—N-((4-methoxy-6-methyl-2-oxo-1,2-dihydropyridin-3-yl)methyl)-1-(2-methoxypyridin-4-yl)-6-methyl-5-(1-(4-(2,2,2-trifluoroethyl)piperazin-1-yl)ethyl)indolizine-7-carboxamide], the 50% inhibitory concentration (IC50) was in the range of 100 to 1000 nM.

Regarding `COc1cc(C)[nH]c(=O)c1CNC(=O)c1cc2c(-c3cnc(C)nc3)ccn2c([C@H](C)N2CCN(CC(F)(F)F)CC2)c1C` (single isomer, unassigned) [Compound 197, (S)—N-((4-methoxy-6-methyl-2-oxo-1,2-dihydropyridin-3-yl)methyl)-6-methyl-1-(2-methylpyrimidin-5-yl)-5-(1-(4-(2,2,2-trifluoroethyl)piperazin-1-yl)ethyl)indolizine-7-formamide or (R)—N-((4-methoxy-6-methyl-2-oxo-1,2-dihydropyridin-3-yl)methyl)-6-methyl-1-(2-methylpyrimidin-5-yl)-5-(1-(4-(2,2,2-trifluoroethyl)piperazin-1-yl)ethyl)indolizine-7-formamide], the IC50 was under 100 nM.

For `COc1cc(C)[nH]c(=O)c1CNC(=O)c1cc2c(-c3cnc(C)nc3)ccn2c([C@H](C)N2CCN(CC(F)(F)F)CC2)c1C` (single isomer, unassigned) [Compound 198, (S)—N-((4-methoxy-6-methyl-2-oxo-1,2-dihydropyridin-3-yl)methyl)-6-methyl-1-(2-methylpyrimidin-5-yl)-5-(1-(4-(2,2,2-trifluoroethyl)piperazin-1-yl)ethyl)indolizine-7-formamide or (R)—N-((4-methoxy-6-methyl-2-oxo-1,2-dihydropyridin-3-yl)methyl)-6-methyl-1-(2-methylpyrimidin-5-yl)-5-(1-(4-(2,2,2-trifluoroethyl)piperazin-1-yl)ethyl)indolizine-7-formamide], the IC50 was under 100 nM.

As to `COc1cc(C)[nH]c(=O)c1CNC(=O)c1cc2c(-c3ccc(C)nn3)ccn2c([C@H](C)N2CCN(CC(F)(F)F)CC2)c1C` (single isomer, unassigned) [Compound 200, (S)—N-((4-methoxy-6-methyl-2-oxo-1,2-dihydropyridin-3-yl)methyl)-6-methyl-1-(6-methylpyridazin-3-yl)-5-(1-(4-(2,2,2-trifluoroethyl)piperazin-1-yl)ethyl)indolizine-7-formamide or (R)—N-((4-methoxy-6-methyl-2-oxo-1,2-dihydropyridin-3-yl)methyl)-6-methyl-1-(6-methylpyridazin-3-yl)-5-(1-(4-(2,2,2-trifluoroethyl)piperazin-1-yl)ethyl)indolizine-7-formamide], the IC50 was under 100 nM.

Consider `COc1cc(C)[nH]c(=O)c1CNC(=O)c1cc2c(-c3ccc(C)nn3)ccn2c([C@H](C)N2CCN(CC(F)(F)F)CC2)c1C` (single isomer, unassigned) [Compound 201, (S)—N-((4-methoxy-6-methyl-2-oxo-1,2-dihydropyridin-3-yl)methyl)-6-methyl-1-(6-methylpyridazin-3-yl)-5-(1-(4-(2,2,2-trifluoroethyl)piperazin-1-yl)ethyl)indolizine-7-formamide or (R)—N-((4-methoxy-6-methyl-2-oxo-1,2-dihydropyridin-3-yl)methyl)-6-methyl-1-(6-methylpyridazin-3-yl)-5-(1-(4-(2,2,2-trifluoroethyl)piperazin-1-yl)ethyl)indolizine-7-formamide], for which the concentration for half-maximal inhibition (IC50) is under 100 nM.

With `COc1cc(-c2cc3cc(C(=O)NCc4c(C)cc(C)[nH]c4=O)c(C)c(C(C)OC)n3c2)cc(OC)c1OC` (centres unmarked) [Compound 151], the IC50 was under 100 nM.

With `COc1cc(C)[nH]c(=O)c1CNC(=O)c1cc2c(-c3ccc(N)nc3)ccn2c(C(C)N2CCN(CC(F)(F)F)CC2)c1C` (centres unmarked) [Compound 157], the concentration for half-maximal inhibition (IC50) is under 100 nM.

For `COc1cc(C)[nH]c(=O)c1CNC(=O)c1cc2c(-c3c(C)noc3C)ccn2c(C(C)N2CCN(CC(F)(F)F)CC2)c1C` (centres unmarked) [Compound 161, 1-(3,5-dimethylisoxazol-4-yl)-N-((4-methoxy-6-methyl-2-oxo-1,2-dihydropyridin-3-yl)methyl)-6-methyl-5-(1-(4-(2,2,2-trifluoroethyl)piperazin-1-yl)ethyl)indolizine-7-carboxamide], the IC50 was under 100 nM.

As for `CNc1ccc(-c2ccn3c(C(C)N4CCN(CC(F)(F)F)CC4)c(C)c(C(=O)NCc4c(OC)cc(C)[nH]c4=O)cc23)cn1` (centres unmarked) [Compound 163, N-((4-methoxy-6-methyl-2-oxo-1,2-dihydropyridin-3-yl)methyl)-6-methyl-1-(6-(methylamino)pyridin-3-yl)-5-(1-(4-(2,2,2-trifluoroethyl)piperazin-1-yl)ethyl)indolizine-7-carboxamide], the IC50 was under 100 nM.

Take `COc1cc(C)[nH]c(=O)c1CNC(=O)c1cc2c(-c3cc(C)nc(C)c3)ccn2c(C(C)N2CCN(CC(F)(F)F)CC2)c1C` (centres unmarked) [Compound 173]: the IC50 is under 100 nM.

Regarding `COc1cc(C)[nH]c(=O)c1CNC(=O)c1cc2c(-c3ccc(C)nc3C)ccn2c(C(C)N2CCN(CC(F)(F)F)CC2)c1C` (centres unmarked) [Compound 176], the concentration for half-maximal inhibition (IC50) is under 100 nM.

Take `COc1cc(C)[nH]c(=O)c1CNC(=O)c1cc2c(-c3cccnc3N(C)C)ccn2c(C(C)N2CCN(CC(F)(F)F)CC2)c1C` (centres unmarked) [Compound 179, 1-(2-(dimethylamino)pyridin-3-yl)-N-((4-methoxy-6-methyl-2-oxo-1,2-dihydropyridin-3-yl)methyl)-6-methyl-5-(1-(4-(2,2,2-trifluoroethyl)piperazin-1-yl)ethyl)indolizine-7-carboxamide]: the IC50 was under 100 nM.

As for `COc1cc(C)[nH]c(=O)c1CNC(=O)c1cc2c(-c3ncnn3C)ccn2c(C(C)N2CCN(CC(F)(F)F)CC2)c1C` (centres unmarked) [Compound 183, N-((4-methoxy-6-methyl-2-oxo-1,2-dihydropyridin-3-yl)methyl)-6-methyl-1-(1-methyl-1H-1,2,4-triazol-5-yl)-5-(1-(4-(2,2,2-trifluoroethyl)piperazin-1-yl)ethyl)indolizine-7-carboxamide], the IC50 is under 100 nM.

Staying with this experiment, now noted: read-out: IC50 (EZH2_Y641F); EZH2 Y641F PRC2 complex, HTRF; numeric values.
As for `COc1cc(C)[nH]c(=O)c1CNC(=O)c1cc2c(-c3cn[nH]c3)ccn2c(C(C)N2CCOCC2)c1C` (centres unmarked) [Compound 152, N-((4-Methoxy-6-methyl-2-oxo-1,2-dihydropyridin-3-yl)methyl)-6-methyl-5-(1-morpholinylethyl)-1-(1H-pyrazol-4-yl)indolizine-7-carboxamide], the 50% inhibitory concentration (IC50) was found to be 2.65 nM.

As for `COc1cc(C)[nH]c(=O)c1CNC(=O)c1cc2c(-c3ccn[nH]3)ccn2c(C(C)N2CCOCC2)c1C` (centres unmarked) [Compound 153, N-((4-Methoxy-6-methyl-2-oxo-1,2-dihydropyridin-3-yl)methyl)-6-methyl-5-(1-morpholinylethyl)-1-(1H-pyrazol-5-yl)indolizine-7-carboxamide], the IC50 is 2.15 nM.
